# Test results from patent US20020049257A1, “Antibacterial composition” (priority 2000, published 2002).
# Experiments:
# [1] = test system: Ax 26 Corynebacterium sp.; test: MIC microtiter plate test, axilla strain Ax 26; format: cell-based; conditions: for Minimal inhibitory concentration (MIC) Ax 26: at least 80% growth inhibition, 24 h, 36° C., Table 1; for Bacteriostatic activity Corynebact. Ax 26: at least 80% reduction in growth during 24 hours, Table 7
# Text: (§1) The different bacterial strains had been isolated from the human axilla by current microbiological practice. They were taxonomically identified by cell morphology, gram-reaction, and biochemical tests included in the Api coryne test kit (BioMerieux, France). Strain Staphylococcus epidermidis Ax25 was identified by fatty acid methyl ester analysis (FAME; German type strain collection DSMZ, Germany). The strains were maintained on Tryptic soy broth plates, this standard medium being amended with 5 g per Liter of Tween 80 and 1 g of Soybean lecithin. Plates were incubated at 36° C. for a period 48 hours. The bacteria were then swabbed from the plates and suspended in 4 ml of Muller-Hinton broth amended with 100 mg of Tween 80 per Liter (MH-Tween) and incubated again at 360 C for 16 hours. Following incubation the bacterial suspensions were diluted in MH-Tween to obtain a final cell density of 10^6 colony forming units per ml. For each fragrance material four microtiter plates were used in the example, each microtiter plate having 8 rows, A-H, and 12 columns, 1-12. To each column a diluted suspension of a different test organism was distributed, 100 μl per well. 1% stock solutions of the fragrance materials were then prepared in MH-Tween broth. The fragrance material was dispersed by ultrasonication into the aqueous medium to obtain a homogenous emulsion. 100 μl per well of this emulsion was then added to the first row of the microtiter plates already containing the target organisms. Serial dilution series were then prepared starting at row A and continuing until row G, each time removing 100 μl from a well and transferring it to the next well. In this way fragrance concentrations of 0.5%, 0.25%, 0.125%, 0.0625%, 0.03125%, 0.0156%, and 0.0078% were tested for their antibacterial efficacy. The reference compound Triclosan was tested at 16-fold lower concentrations. The plates were covered with plastic films and incubated for 24 h at 36° C. with shaking at 250 rpm. The turbidity developing in the microtiter plates was then examined after 24 h to determine microbial growth. The minimal concentration of fragrance inhibiting the growth of an organism by at least 80% was determined as the minimal inhibitory concentration (MIC).
# Ax 25 was identified as Staphylococcus epidermidis by FAME analysis. Identification with the Api Coryne test kit yielded the following species assignments for the remainder of the strains: Ax 26 Corynebacterium sp.; Ax 3 Corynebacterium bovis; Ax 7 Corynebacterium group G; Ax 10 Corynebacterium jeikeium; Ax 11 Corynebacterium jeikeium; Ax 12 Corynebacteriurn jeikeium; Ax 15 Corynebacterium jeikeium; Ax 20 Corynebacterium striatum/amycolatum; and Ax 19 Corynebacterium jeikeium. The strains were isolated from the axilla of 8 human volunteers. […]
# [2] = test system: Ax 3 Corynebacterium bovis; test: MIC microtiter plate test, axilla strain Ax 3; format: cell-based; conditions: at least 80% growth inhibition, 24 h, 36° C.; Table 1
# Text: as §1, with “The minimal concentration of fragrance inhibiting the growth of an organism by at least 80% was determined as the minimal inhibitory concentration (MIC).” left out
# [3] = test system: Ax 7 Corynebacterium group G; test: MIC microtiter plate test, axilla strain Ax 7; format: cell-based; conditions: for Minimal inhibitory concentration (MIC) Ax 7: at least 80% growth inhibition, 24 h, 36° C., Table 1
# Text: as §1
# (§2) Ax 25 was identified as Staphylococcus epidermidis by FAME analysis. Identification with the Api Coryne test kit yielded the following species assignments for the remainder of the strains: Ax 26 Corynebacterium sp.; Ax 3 Corynebacterium bovis; Ax 7 Corynebacterium group G; Ax 10 Corynebacterium jeikeium; Ax 11 Corynebacterium jeikeium; Ax 12 Corynebacteriurn jeikeium; Ax 15 Corynebacterium jeikeium; Ax 20 Corynebacterium striatum/amycolatum; and Ax 19 Corynebacterium jeikeium. The strains were isolated from the axilla of 8 human volunteers. Based on biochemical tests and colony morphology all strains were distinct from each other, even the several strains all belonging to Corynebacterium jeikelurn.
# [4] = test system: Ax 11 Corynebacterium jeikeium; test: MIC microtiter plate test, axilla strain Ax 11; format: cell-based; conditions: at least 80% growth inhibition, 24 h, 36° C.; Table 1
# Text: as §1, with “The minimal concentration of fragrance inhibiting the growth of an organism by at least 80% was determined as the minimal inhibitory concentration (MIC).” left out
# [5] = test system: Ax 12 Corynebacteriurn jeikeium; test: MIC microtiter plate test, axilla strain Ax 12; format: cell-based, Corynebacterium jeikeium; conditions: at least 80% growth inhibition, 24 h, 36° C.; Table 1
# Text: as §1, with “The minimal concentration of fragrance inhibiting the growth of an organism by at least 80% was determined as the minimal inhibitory concentration (MIC).” left out
# [6] = test system: Ax 15 Corynebacterium jeikeium; test: MIC microtiter plate test, axilla strain Ax 15; format: cell-based; conditions: for Minimal inhibitory concentration (MIC) Ax 15: at least 80% growth inhibition, 24 h, 36° C., Table 1; for Bacteriostatic activity Corynebact. Ax 15: at least 80% reduction in growth during 24 hours, Table 7
# Text: as §1, §2
# [7] = test system: Ax 20 Corynebacterium striatum/amycolatum; test: MIC microtiter plate test, axilla strain Ax 20; format: cell-based; conditions: at least 80% growth inhibition, 24 h, 36° C.; Table 1
# Text: as §1, with “The minimal concentration of fragrance inhibiting the growth of an organism by at least 80% was determined as the minimal inhibitory concentration (MIC).” left out
# [8] = test system: Brevibacterium epidermidis DSMZ 9586; test: MIC against Brevibacterium epidermidis; format: cell-based; conditions: DSMZ 9586, method of Example 1
# Text: as §1
# A selection of perfume compounds were tested against Brevibacterium epidermidis DSMZ 9586 (German Collection of Microorganisms and Cell Cultures) with the method described in Example 1.
# [9] = test system: Corynebacteria; test: MIC against Corynebacteria (average / overall); format: cell-based, Corynebacterium; conditions: malodor forming axilla bacteria
# Text: (§3) The different bacterial strains had been isolated from the human axilla by current microbiological practice. They were taxonomically identified by cell morphology, gram-reaction, and biochemical tests included in the Api coryne test kit (BioMerieux, France). Strain Staphylococcus epidermidis Ax25 was identified by fatty acid methyl ester analysis (FAME; German type strain collection DSMZ, Germany). The strains were maintained on Tryptic soy broth plates, this standard medium being amended with 5 g per Liter of Tween 80 and 1 g of Soybean lecithin. Plates were incubated at 36° C. for a period 48 hours. The bacteria were then swabbed from the plates and suspended in 4 ml of Muller-Hinton broth amended with 100 mg of Tween 80 per Liter (MH-Tween) and incubated again at 360 C for 16 hours. Following incubation the bacterial suspensions were diluted in MH-Tween to obtain a final cell density of 10^6 colony forming units per ml. For each fragrance material four microtiter plates were used in the example, each microtiter plate having 8 rows, A-H, and 12 columns, 1-12. […]
# Since sandela is known to be a mixture of different reaction products, commercial sandela was subjected to a distillation process. […] The different fractions were evaluated for their antimicrobial activity (Table 6) with the method described in example 1. […]
# [10] = test system: Ax 10 Corynebacterium jeikeium; test: MIC microtiter plate test, axilla strain Ax 10; format: cell-based; conditions: at least 80% growth inhibition, 24 h, 36° C.; Table 1
# Text: as §3, with “1-12. To each column a diluted suspension of a different test organism was distributed, 100 μl per well. 1% stock solutions of the fragrance materials were then prepared in MH-Tween broth. The fragrance material was dispersed by ultrasonication into the aqueous medium to obtain a homogenous emulsion.” for “1-12.”
# [11] = test system: Propionibacterium acnes DSMZ1897; test: MIC against Propionibacterium acnes, anaerobic, 72 hours; format: cell-based; conditions: DSMZ1897, anaerobic conditions
# [12] = test system: Ax 19 Corynebacterium jeikeium; test: MIC microtiter plate test, axilla strain Ax 19; format: cell-based; conditions: at least 80% growth inhibition, 24 h, 36° C.; Table 1
# Text: as §3, with “1-12. To each column a diluted suspension of a different test organism was distributed, 100 μl per well. 1% stock solutions of the fragrance materials were then prepared in MH-Tween broth. The fragrance material was dispersed by ultrasonication into the aqueous medium to obtain a homogenous emulsion.” for “1-12.”
Structure (SMILES),Minimal inhibitory concentration (MIC) Ax 3 [2],Minimal inhibitory concentration (MIC) Ax 7 [3],Minimal inhibitory concentration (MIC) Ax 11 [4],Minimal inhibitory concentration (MIC) Ax 12 [5],Minimal inhibitory concentration (MIC) Ax 15 [6],Minimal inhibitory concentration (MIC) Ax 20 [7],MIC for Brevibacterium epidermidis [8],Bacteriostatic activity Corynebact. Ax 15 [6],MIC for Propionibacterium acnes [11],other results
CC1=CCC(/C=C\C(C)C(C)O)C1(C)C (stereo not drawn) [Ebanol],0.1250 % weight/ volume,0.1250 % weight/ volume,0.2500 % weight/ volume,0.2500 % weight/ volume,0.2500 % weight/ volume,0.1250 % weight/ volume,–,–,–,Minimal inhibitory concentration (MIC) Ax 26 [1]: 0.1250 % weight/ volume
CCC(=CCC1CC=C(C)C1(C)C)CO (stereo not drawn) [Radjanol],–,0.0625 % weight/ volume,–,–,–,–,0.03125 % w/v,–,–,–
"COC1CC(C2CC3CC2C(C)C3(C)C)CCC1O (single isomer, unassigned) [Peak B]",–,–,–,–,–,–,–,0.0028 percent (w/v),–,Bacteriostatic activity Corynebact. Ax 26 [1]: 0.0016 percent (w/v)
"COC1CC(C2CC3CC2C(C)C3(C)C)CCC1O (stereo not drawn) [2-methoxy-4-(5,5,6-trimethylbicyclo[2.2.1]hept-2-yl)cyclohexan-1-ol]",–,–,–,–,–,–,–,–,–,activity against Corynebacteria (in words) [9]: highest activity
CC1=CCC(CCC(C)C(C)O)C1(C)C (stereo not drawn) [Sandalore],0.1250 % weight/ volume,0.1250 % weight/ volume,0.1250 % weight/ volume,0.1250 % weight/ volume,–,0.1250 % weight/ volume,0.0937 % w/v,–,0.25 % w/v,Minimal inhibitory concentration (MIC) Ax 26 [1]: 0.1250 % weight/ volume; Minimal inhibitory concentration (MIC) Ax 10 [10]: 0.1250 % weight/ volume
"CC(C)=CCCC(C)=CCCC(C)=CCO [Farnesol, 3,7,11-trimethyl-2,6,10-dodecatrien-1-ol]",0.0156 % weight/ volume,–,–,0.0137 % weight/ volume,0.0156 % weight/ volume,0.0137 % weight/ volume,0.0078 % w/v,0.0156 percent (w/v),0.0078 % w/v,Minimal inhibitory concentration (MIC) Ax 10 [10]: 0.0078 % weight/ volume; Minimal inhibitory concentration (MIC) Ax 19 [12]: 0.0156 % weight/ volume
"COC1CC(C2CC3CC2C(C)C3(C)C)CCC1O (single isomer, unassigned) [Peak A]",–,–,–,–,–,–,–,0.0048 percent (w/v),–,Bacteriostatic activity Corynebact. Ax 26 [1]: 0.0028 percent (w/v)
"Oc1cc(Cl)ccc1Oc1ccc(Cl)cc1Cl [Triclosan, 2,4,4′-trichloro-2′-hydroxy-diphenyl-ether]",–,0.0029 % weight/ volume,0.0029 % weight/ volume,–,0.0029 % weight/ volume,–,0.003125 % w/v,–,0.00039 % w/v,"Bacteriostatic activity Corynebact. Ax 7 ([3]; at least 80% reduction in growth during 24 hours, Table 7): 0.0025 percent (w/v)"
"COC1CCC(C2CC3CC2C(C)C3(C)C)CC1O (stereo not drawn) [2-methoxy-5-(5,5,6-trimethyl-bicyclo[2.2.1]hept-2-yl)cyclohexan-1-ol]",–,–,–,–,–,–,–,–,–,activity against Corynebacteria (in words) [9]: highest activity
